Publication PMC3361698 (Chemistry & biology, 2012)

Assays:
[1] = molecular target: T1, EcPPCS (phosphopantothenoylcysteine synthetase) (Escherichia coli, UniProt P0ABQ0); assay: CD melting temperature shift; type: binding
[2] = molecular target: T2, SaPanKII (pantothenate kinase, type II) (Staphylococcus aureus, UniProt Q8NVG0); type: biochemical
[3] = molecular target: T2, SaPanKII (pantothenate kinase, type II); assay: coupled spectrophotometric kinase assay with purified enzyme; type: biochemical
[4] = molecular target: T1, EcPPCS (phosphopantothenoylcysteine synthetase); assay: pyrophosphate release, HPLC/LCMS of cytidylylation; type: biochemical
[5] = molecular target: T1, EcPPCS (phosphopantothenoylcysteine synthetase); assay: CD melting temperature shift; type: binding; remark: listed apart in the source
[6] = molecular target: T1, EcPPCS (phosphopantothenoylcysteine synthetase); assay: progress curves with Morrison fit, inhibitor formed in situ from P-CJ and CTP; type: biochemical
[7] = molecular target: T3, SaCoaBC (bifunctional CoaBC protein, phosphopantothenoylcysteine synthetase) (Staphylococcus aureus, UniProt Q2G268); assay: progress curve inhibition analysis; type: biochemical
T3 sequence (Q2G268 1-399): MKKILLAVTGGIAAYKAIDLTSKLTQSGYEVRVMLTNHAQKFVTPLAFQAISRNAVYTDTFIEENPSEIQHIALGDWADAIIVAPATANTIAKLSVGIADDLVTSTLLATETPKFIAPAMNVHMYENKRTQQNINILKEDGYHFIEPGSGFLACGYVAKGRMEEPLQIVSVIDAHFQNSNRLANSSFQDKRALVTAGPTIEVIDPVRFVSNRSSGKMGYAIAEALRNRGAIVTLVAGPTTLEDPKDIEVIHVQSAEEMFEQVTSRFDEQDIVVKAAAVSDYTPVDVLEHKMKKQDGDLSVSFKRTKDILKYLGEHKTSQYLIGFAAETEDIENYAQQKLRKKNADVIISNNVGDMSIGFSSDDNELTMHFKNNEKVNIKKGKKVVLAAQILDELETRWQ

T1 sequence (P0ABQ0 181-406): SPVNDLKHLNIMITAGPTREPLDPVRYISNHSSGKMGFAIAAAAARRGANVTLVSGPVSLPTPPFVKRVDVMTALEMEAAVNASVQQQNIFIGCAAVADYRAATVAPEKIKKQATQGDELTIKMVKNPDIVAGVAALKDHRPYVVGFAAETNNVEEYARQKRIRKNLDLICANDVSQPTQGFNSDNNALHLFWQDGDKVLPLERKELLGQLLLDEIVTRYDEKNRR
T2 sequence (Q8NVG0 whole entry): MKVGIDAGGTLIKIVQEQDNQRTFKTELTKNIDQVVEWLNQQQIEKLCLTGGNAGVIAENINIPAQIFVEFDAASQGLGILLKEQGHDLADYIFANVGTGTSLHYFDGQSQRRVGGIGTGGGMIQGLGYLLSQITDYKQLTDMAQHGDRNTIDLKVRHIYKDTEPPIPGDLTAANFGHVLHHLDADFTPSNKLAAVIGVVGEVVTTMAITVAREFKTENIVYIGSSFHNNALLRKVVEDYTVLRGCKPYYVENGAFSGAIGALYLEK

SMILES: Nc1ccn([C@@H]2O[C@H](COP(=O)(O)OP(=O)(O)OP(=O)(O)O)[C@@H](O)[C@H]2O)c(=O)n1 [CTP]
- CD melting temperature shift (47.7 to 49.7 °C) [1]: 49.7 °C (Tm)

SMILES: CC(C)(CO)[C@@H](O)C(=O)N/C=C/C(=O)O [compound 1, CJ-15,801]
- HPLC of phosphorylation and coupled spectrophotometric kinase assay with purifie [2]: 13.8±4.2 mM^−1.s^−1 (kcat/Km)

SMILES: CC(C)(CO)[C@@H](O)C(=O)NCCC(=O)O [compound 2, pantothenic acid]
- coupled spectrophotometric kinase assay with purified enzyme [3]: 30.2±8.7 mM^−1.s^−1 (kcat/Km)

SMILES: CC(C)(COP(=O)(O)O)[C@@H](O)C(=O)N/C=C/C(=O)O [compound 13, P-CJ]
- IC50 [4]: 2660 ± 160 nM

SMILES: CC(C)(COP(=O)(O)O)[C@@H](O)C(=O)NCCC(=O)OP(=O)(O)OC[C@H]1O[C@@H](n2ccc(N)nc2=O)[C@H](O)[C@@H]1O [compound 14, P-Pan-CMP]
- CD melting temperature shift (47.7 to 54.3 °C), formed in situ from P-Pan and CT [5]: 54.3 °C (Tm)

SMILES: CC(C)(COP(=O)(O)O)[C@@H](O)C(=O)N/C=C/C(=O)OP(=O)(O)OC[C@H]1O[C@@H](n2ccc(N)nc2=O)[C@H](O)[C@@H]1O [compound 16, P-CJ-CMP]
- Ki [6]: 164 nM
- Ki [7]: 13 nM
